Ten cell lines from the supplement of paper PMC10307832 can be followed below.

What all share (experiment): relative viability (nuclei count vs DMSO), 5 days (fraction); higher = more cells survive
Compound in the test “Selisistat + Decitabine”: C1CC(C2=C(C1)C3=C(N2)C=CC(=C3)Cl)C(=O)N [Selisistat] + Nc1ncn([C@H]2C[C@H](O)[C@@H](CO)O2)c(=O)n1 [Decitabine] (partner 2 µM)
The method, boiled down:
(§1)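 Values are medians from duplicate plates. Each reflects relative viability, defined as the nuclei count of treated wells over that of vehicle wells. Lung cancer cell lines in 1536-well plates were pin-tool dosed one day after seeding with one drug alone or with a fixed anchor-drug dose plus five library-drug doses (not always all listed) in √10 steps, then fixed, stained and imaged at 4× after 5 days.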

Compound in the test “Selisistat + Phenformin”: C1CC(C2=C(C1)C3=C(N2)C=CC(=C3)Cl)C(=O)N [Selisistat] + N=C(N)NC(=N)NCCc1ccccc1 [Phenformin] (partner 250 µM)
The method, boiled down:
as §1

Compound in the test “Selisistat + Luminespib”: C1CC(C2=C(C1)C3=C(N2)C=CC(=C3)Cl)C(=O)N [Selisistat] + CCNC(=O)c1noc(-c2cc(C(C)C)c(O)cc2O)c1-c1ccc(CN2CCOCC2)cc1 [Luminespib] (partner 0.01 µM)
The method, boiled down:
as §1

Compound in the test “Serdemetan + Linsitinib”: c1ccc2c(CCNc3ccc(Nc4ccncc4)cc3)c[nH]c2c1 [Serdemetan] + C[C@]1(O)C[C@@H](c2nc(-c3ccc4ccc(-c5ccccc5)nc4c3)c3c(N)nccn32)C1 [Linsitinib] (partner 1 µM)
The gist of the method: as §1

In the case of NCI-H2342, the relative viability was 0.734 with Selisistat + Decitabine (first compound 0.4 µM); 0.772 with Selisistat + Decitabine (first compound 1.265 µM); 0.689 with Selisistat + Decitabine (first compound 4 µM); 0.704 with Selisistat + Decitabine (first compound 12.65 µM); 0.874 with Selisistat + Decitabine (first compound 40 µM); 0.562 with Selisistat + Phenformin (first compound 0.4 µM). For the same cell line, the relative viability in the test with Selisistat + Phenformin (first compound 1.265 µM) stood at 0.54; with Selisistat + Phenformin (first compound 4 µM) it was 0.504; with Selisistat + Phenformin (first compound 12.65 µM), 0.601; with Selisistat + Phenformin (first compound 40 µM), 0.61; with Selisistat + Luminespib (first compound 0.4 µM) it was 0.725; with Selisistat + Luminespib (first compound 1.265 µM), 0.668. The relative viability was 0.625 in the test with Selisistat + Luminespib (first compound 4 µM), 0.923 in the test with Selisistat + Luminespib (first compound 12.65 µM) and 0.742 with Selisistat + Luminespib (first compound 40 µM).
Take SK-MES-1: the relative viability came to 0.964 with Serdemetan + Linsitinib (first compound 0.04 µM); 1.2 with Serdemetan + Linsitinib (first compound 0.1265 µM); 1.03 with Serdemetan + Linsitinib (first compound 0.4 µM); 0.796 with Serdemetan + Linsitinib (first compound 1.265 µM); 0.674 in the test with Serdemetan + Linsitinib (first compound 4 µM); 0.397 with Selisistat + Decitabine (first compound 0.4 µM). The relative viability stood at 0.446 with Selisistat + Decitabine (first compound 1.265 µM); 0.312 with Selisistat + Decitabine (first compound 4 µM); 0.325 with Selisistat + Decitabine (first compound 12.65 µM); 0.331 with Selisistat + Decitabine (first compound 40 µM); 0.683 in the test with Selisistat + Phenformin (first compound 0.4 µM); 0.718 in the test with Selisistat + Phenformin (first compound 1.265 µM). For the same cell line, the relative viability with Selisistat + Phenformin (first compound 4 µM) came out at 0.681; with Selisistat + Phenformin (first compound 12.65 µM), 0.695; in the test with Selisistat + Phenformin (first compound 40 µM), 0.681; with Selisistat + Luminespib (first compound 0.4 µM), 1; with Selisistat + Luminespib (first compound 1.265 µM), 0.906; with Selisistat + Luminespib (first compound 4 µM), 0.802. Besides, the values for the relative viability with Selisistat + Luminespib (first compound 12.65 µM) and with Selisistat + Luminespib (first compound 40 µM) were 0.622 and 0.788, respectively.
As for HCC-366, the relative viability with Serdemetan + Linsitinib (first compound 0.04 µM) is 0.731; with Serdemetan + Linsitinib (first compound 0.1265 µM), 0.317; with Serdemetan + Linsitinib (first compound 0.4 µM) it was 0.244; with Serdemetan + Linsitinib (first compound 1.265 µM), 0.0612; with Serdemetan + Linsitinib (first compound 4 µM), 0.0456; with Selisistat + Decitabine (first compound 0.4 µM), 0.383. Further, the relative viability in the test with Selisistat + Decitabine (first compound 1.265 µM) turned out to be 0.31; with Selisistat + Decitabine (first compound 4 µM), 0.33; in the test with Selisistat + Decitabine (first compound 12.65 µM), 0.356; in the test with Selisistat + Decitabine (first compound 40 µM), 0.324; with Selisistat + Phenformin (first compound 0.4 µM) it was 0.662; in the test with Selisistat + Phenformin (first compound 1.265 µM) it was 0.679. In addition, the relative viability with Selisistat + Phenformin (first compound 4 µM) stood at 0.557; with Selisistat + Phenformin (first compound 12.65 µM) it was 0.575; with Selisistat + Phenformin (first compound 40 µM) it was 0.609.
As for 201T, the relative viability with Serdemetan + Linsitinib (first compound 0.04 µM) stood at 1.04; in the test with Serdemetan + Linsitinib (first compound 0.1265 µM) it was 1.03; in the test with Serdemetan + Linsitinib (first compound 0.4 µM), 1.01; with Serdemetan + Linsitinib (first compound 1.265 µM) it was 1.02; with Serdemetan + Linsitinib (first compound 4 µM), 0.781; in the test with Selisistat + Decitabine (first compound 0.4 µM), 0.915. For the same cell line, the relative viability in the test with Selisistat + Decitabine (first compound 1.265 µM) stood at 0.816; with Selisistat + Decitabine (first compound 4 µM), 0.845; with Selisistat + Decitabine (first compound 12.65 µM) it was 0.877; with Selisistat + Decitabine (first compound 40 µM), 0.913; with Selisistat + Phenformin (first compound 0.4 µM) it was 0.449; in the test with Selisistat + Phenformin (first compound 1.265 µM), 0.436. In addition, the relative viability stood at 0.432 with Selisistat + Phenformin (first compound 4 µM); 0.41 in the test with Selisistat + Phenformin (first compound 12.65 µM); 0.481 with Selisistat + Phenformin (first compound 40 µM); 1.14 in the test with Selisistat + Luminespib (first compound 0.4 µM); 1.12 with Selisistat + Luminespib (first compound 1.265 µM); 0.983 with Selisistat + Luminespib (first compound 4 µM). Besides, the relative viability amounted to 1.04 with Selisistat + Luminespib (first compound 12.65 µM) and 1.01 with Selisistat + Luminespib (first compound 40 µM).
With HCC-827, the relative viability with Serdemetan + Linsitinib (first compound 0.04 µM) stood at 0.892; with Serdemetan + Linsitinib (first compound 0.1265 µM), 0.9; with Serdemetan + Linsitinib (first compound 1.265 µM), 0.689; in the test with Serdemetan + Linsitinib (first compound 4 µM) it was 0.762; with Selisistat + Decitabine (first compound 0.4 µM), 0.313; in the test with Selisistat + Decitabine (first compound 1.265 µM), 0.375. Besides, the relative viability with Selisistat + Decitabine (first compound 4 µM) was 0.31; with Selisistat + Decitabine (first compound 12.65 µM), 0.321; with Selisistat + Decitabine (first compound 40 µM), 0.291; with Selisistat + Phenformin (first compound 0.4 µM), 0.448; with Selisistat + Phenformin (first compound 1.265 µM) it was 0.399; with Selisistat + Phenformin (first compound 4 µM), 0.428. Also, the relative viability in the test with Selisistat + Phenformin (first compound 12.65 µM) was 0.395; in the test with Selisistat + Phenformin (first compound 40 µM), 0.432; with Selisistat + Luminespib (first compound 0.4 µM) it was 0.619; in the test with Selisistat + Luminespib (first compound 1.265 µM), 0.6; in the test with Selisistat + Luminespib (first compound 4 µM) it was 0.482; in the test with Selisistat + Luminespib (first compound 12.65 µM) it was 0.575. Moreover, the relative viability in the test with Selisistat + Luminespib (first compound 40 µM) came to 0.832.
For the cell line NCI-H1703, the relative viability in the test with Serdemetan + Linsitinib (first compound 0.04 µM) amounted to 0.515; with Serdemetan + Linsitinib (first compound 0.1265 µM), 1.04; with Serdemetan + Linsitinib (first compound 0.4 µM) it was 0.765; with Serdemetan + Linsitinib (first compound 1.265 µM), 0.654; with Serdemetan + Linsitinib (first compound 4 µM), 0.608.
Regarding Calu-6, the relative viability with Serdemetan + Linsitinib (first compound 0.04 µM) is 0.895; in the test with Serdemetan + Linsitinib (first compound 0.1265 µM), 0.962; with Serdemetan + Linsitinib (first compound 0.4 µM), 0.958; in the test with Serdemetan + Linsitinib (first compound 1.265 µM) it was 0.913; with Serdemetan + Linsitinib (first compound 4 µM), 0.698.
For HCC-78, the relative viability with Serdemetan + Linsitinib (first compound 0.04 µM) was determined as 0.505; in the test with Serdemetan + Linsitinib (first compound 0.1265 µM) it was 0.525; with Serdemetan + Linsitinib (first compound 0.4 µM), 0.542; with Serdemetan + Linsitinib (first compound 1.265 µM), 0.499; with Serdemetan + Linsitinib (first compound 4 µM), 0.257; in the test with Selisistat + Decitabine (first compound 0.4 µM), 0.768. The relative viability with Selisistat + Decitabine (first compound 1.265 µM) turned out to be 0.794; in the test with Selisistat + Decitabine (first compound 4 µM) it was 0.6; with Selisistat + Decitabine (first compound 12.65 µM) it was 0.66; with Selisistat + Decitabine (first compound 40 µM), 0.646; with Selisistat + Phenformin (first compound 0.4 µM) it was 0.774; with Selisistat + Phenformin (first compound 1.265 µM), 0.815. Further, the relative viability worked out at 0.54 with Selisistat + Phenformin (first compound 4 µM), 0.685 with Selisistat + Phenformin (first compound 12.65 µM) and 0.744 with Selisistat + Phenformin (first compound 40 µM).
As for NCI-H1299, the relative viability with Serdemetan + Linsitinib (first compound 0.04 µM) stood at 0.923; with Serdemetan + Linsitinib (first compound 0.1265 µM), 0.999; with Serdemetan + Linsitinib (first compound 0.4 µM), 0.969; with Serdemetan + Linsitinib (first compound 1.265 µM), 0.777; with Serdemetan + Linsitinib (first compound 4 µM), 0.669.
For the cell line NCI-H1650, the relative viability with Selisistat + Decitabine (first compound 0.4 µM) turned out to be 0.545; in the test with Selisistat + Decitabine (first compound 1.265 µM) it was 0.422; in the test with Selisistat + Decitabine (first compound 4 µM), 0.382; with Selisistat + Decitabine (first compound 12.65 µM) it was 0.481; with Selisistat + Decitabine (first compound 40 µM), 0.438; with Selisistat + Phenformin (first compound 0.4 µM), 0.375. Also, the relative viability with Selisistat + Phenformin (first compound 1.265 µM) stood at 0.448; with Selisistat + Phenformin (first compound 4 µM), 0.336; in the test with Selisistat + Phenformin (first compound 12.65 µM), 0.361; with Selisistat + Phenformin (first compound 40 µM) it was 0.465; with Selisistat + Luminespib (first compound 0.4 µM) it was 0.17; with Selisistat + Luminespib (first compound 1.265 µM), 0.192. Besides, the results for the relative viability in the test with Selisistat + Luminespib (first compound 4 µM), in the test with Selisistat + Luminespib (first compound 12.65 µM) and with Selisistat + Luminespib (first compound 40 µM) were 0.178, 0.202 and 0.191, respectively.
